This passage reports IC50 results from patent US7750003B2, “Compounds-943” (AstraZeneca AB, priority 2006, dated 2010).

Sequence of recombinant mTOR (FLAG-tagged, residues 1362-2549) (P42345 1362-2549): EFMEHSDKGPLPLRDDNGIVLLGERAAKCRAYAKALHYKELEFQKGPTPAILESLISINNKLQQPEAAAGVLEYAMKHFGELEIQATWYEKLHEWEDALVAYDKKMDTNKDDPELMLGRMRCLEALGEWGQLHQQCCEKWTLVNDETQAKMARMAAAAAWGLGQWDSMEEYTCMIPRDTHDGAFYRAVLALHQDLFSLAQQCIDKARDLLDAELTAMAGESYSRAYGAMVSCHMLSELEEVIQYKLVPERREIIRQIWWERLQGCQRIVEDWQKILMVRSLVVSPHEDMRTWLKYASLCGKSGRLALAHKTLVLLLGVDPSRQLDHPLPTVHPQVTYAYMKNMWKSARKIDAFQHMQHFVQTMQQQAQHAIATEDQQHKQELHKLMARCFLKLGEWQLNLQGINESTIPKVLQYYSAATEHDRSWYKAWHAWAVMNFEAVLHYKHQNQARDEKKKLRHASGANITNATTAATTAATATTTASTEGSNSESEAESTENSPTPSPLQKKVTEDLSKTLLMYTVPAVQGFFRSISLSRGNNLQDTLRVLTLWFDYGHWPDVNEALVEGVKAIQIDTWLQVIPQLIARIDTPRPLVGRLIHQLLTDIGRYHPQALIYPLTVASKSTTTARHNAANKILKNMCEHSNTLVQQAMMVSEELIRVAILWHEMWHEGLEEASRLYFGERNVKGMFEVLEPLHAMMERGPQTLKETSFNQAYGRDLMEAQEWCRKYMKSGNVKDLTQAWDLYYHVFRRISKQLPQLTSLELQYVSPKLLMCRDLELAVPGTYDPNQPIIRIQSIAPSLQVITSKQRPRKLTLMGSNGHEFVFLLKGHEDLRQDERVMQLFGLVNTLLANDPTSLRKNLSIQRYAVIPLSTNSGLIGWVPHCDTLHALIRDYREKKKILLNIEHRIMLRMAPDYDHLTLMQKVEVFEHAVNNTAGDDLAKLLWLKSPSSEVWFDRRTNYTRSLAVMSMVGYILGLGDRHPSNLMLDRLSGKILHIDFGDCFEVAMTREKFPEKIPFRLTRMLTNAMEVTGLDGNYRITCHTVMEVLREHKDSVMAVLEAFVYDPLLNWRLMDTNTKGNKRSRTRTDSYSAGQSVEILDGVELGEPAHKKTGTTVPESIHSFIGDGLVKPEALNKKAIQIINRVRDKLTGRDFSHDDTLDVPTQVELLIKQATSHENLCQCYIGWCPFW

This experiment deals with recombinant mTOR (FLAG-tagged, residues 1362-2549) (Homo sapiens, UniProt P42345). The experiment can be described thus: In vitro mTOR kinase assay (Test (a), AlphaScreen). As to conditions: ATP 20 μM, read-out: Test (a): IC50 versus mTOR kinase. The format is biochemical. How it is done:
(a) In Vitro mTOR Kinase Assay
Following expression in the mammalian HEK293 cell line, expressed protein was purified using the FLAG epitope tag using standard purification techniques.
Aliquots (2 μl) of each compound dilution were placed into a well of a Greiner 384-well low volume (LV) white polystyrene plate (Greiner Bio-one).
These assay solutions were incubated for 2 hours at room temperature.
The resultant signals arising from laser light excitation at 680 nm were read using a Packard Envision instrument.
The phosphorylated biotinylated peptide that is associated with AlphaScreen Streptavidin donor beads forms a complex with the p70 S6 Kinase (T389) 1A5 Monoclonal Antibody that is associated with Alphascreen Protein A acceptor beads. Upon laser light excitation at 680 nm, the donor bead: acceptor bead complex produces a signal that can be measured. Accordingly, the presence of mTOR kinase activity results in an assay signal. In the presence of an mTOR kinase inhibitor, signal strength is reduced.
mTOR enzyme inhibition for a given test compound was expressed as an IC50 value.
On to `CC(C)NC(=O)Nc1ccc(-c2nc(CS(C)(=O)=O)cc(N3CCOCC3)n2)cc1` [Example 7, 3-[4-[4-(Methylsulfonylmethyl)-6-morpholin-4-yl-pyrimidin-2-yl]phenyl]-1-propan-2-yl-urea], for which the concentration for half-maximal inhibition (IC50) turned out to be 170 nM.
As for `Cc1ccc(NC(=O)Nc2ccc(-c3nc(CS(C)(=O)=O)cc(N4CCOCC4)n3)cc2)cc1` [Example 7a, 1-(4-methylphenyl)-3-[4-[4-(methylsulfonylmethyl)-6-morpholin-4-yl-pyrimidin-2-yl]phenyl]urea], the IC50 was found to be 280 nM.
For the compound `CS(=O)(=O)Cc1cc(N2CCOCC2)nc(-c2ccc(NC(=O)Nc3ccc(Cl)cc3)cc2)n1` [Example 7b, 3-(4-chlorophenyl)-1-[4-[4-(methylsulfonylmethyl)-6-morpholin-4-yl-pyrimidin-2-yl]phenyl]urea], the IC50 was determined as 420 nM.
The value for `CS(=O)(=O)Cc1cc(N2CCOCC2)nc(-c2ccc(NC(=O)Nc3ccc(C(F)(F)F)cc3)cc2)n1` [Example 7c, 1-[4-[4-(methylsulfonylmethyl)-6-morpholin-4-yl-pyrimidin-2-yl]phenyl]-3-[4-(trifluoromethyl)phenyl]urea] was 1700 nM; that for `Cc1cc(C)cc(NC(=O)Nc2ccc(-c3nc(CS(C)(=O)=O)cc(N4CCOCC4)n3)cc2)c1` [Example 7d, 1-(3,5-dimethylphenyl)-3-[4-[4-(methylsulfonylmethyl)-6-morpholin-4-yl-pyrimidin-2-yl]phenyl]urea] was 2600 nM.
For `CS(=O)(=O)Cc1cc(N2CCOCC2)nc(-c2ccc(NC(=O)Nc3ccccc3OC(F)F)cc2)n1` [Example 7e, 3-[2-(difluoromethoxy)phenyl]-1-[4-[4-(methylsulfonylmethyl)-6-morpholin-4-yl-pyrimidin-2-yl]phenyl]urea], the IC50 turned out to be 2600 nM.
With `CS(=O)(=O)Cc1cc(N2CCOCC2)nc(-c2ccc(NC(=O)Nc3ccc(F)c(Cl)c3)cc2)n1` [Example 7g, 3-(3-chloro-4-fluoro-phenyl)-1-[4-[4-(methylsulfonylmethyl)-6-morpholin-4-yl-pyrimidin-2-yl]phenyl]urea] the figure was 1300 nM; with `CS(=O)(=O)Cc1cc(N2CCOCC2)nc(-c2ccc(NC(=O)Nc3ccccc3)cc2)n1` [Example 7h, 1-[4-[4-(methylsulfonylmethyl)-6-morpholin-4-yl-pyrimidin-2-yl]phenyl]-3-phenyl-urea], 240 nM.
The value for `CCCCCNC(=O)Nc1ccc(-c2nc(CS(C)(=O)=O)cc(N3CCOCC3)n2)cc1` [Example 7j, 3-[4-[4-(methylsulfonylmethyl)-6-morpholin-4-yl-pyrimidin-2-yl]phenyl]-1-pentyl-urea] was 1900 nM.
`CS(=O)(=O)Cc1cc(N2CCOCC2)nc(-c2ccc(NC(=O)Nc3ccc(F)c(F)c3)cc2)n1` [Example 7k, 3-(3,4-difluorophenyl)-1-[4-[4-(methylsulfonylmethyl)-6-morpholin-4-yl-pyrimidin-2-yl]phenyl]urea]: the IC50 turned out to be 720 nM.
The value for `CS(=O)(=O)Cc1cc(N2CCOCC2)nc(-c2ccc(NC(=O)NC3CCCCC3)cc2)n1` [Example 7l, 3-cyclohexyl-1-[4-[4-(methylsulfonylmethyl)-6-morpholin-4-yl-pyrimidin-2-yl]phenyl]urea] was 7000 nM.
The value for `CCCNC(=O)Nc1ccc(-c2nc(CS(C)(=O)=O)cc(N3CCOCC3)n2)cc1` [Example 7n, 3-[4-[4-(methylsulfonylmethyl)-6-morpholin-4-yl-pyrimidin-2-yl]phenyl]-1-propyl-urea] was 200 nM.
With `CCc1cccc(NC(=O)Nc2ccc(-c3nc(CS(C)(=O)=O)cc(N4CCOCC4)n3)cc2)c1` [Example 7o, 1-(3-ethylphenyl)-3-[4-[4-(methylsulfonylmethyl)-6-morpholin-4-yl-pyrimidin-2-yl]phenyl]urea], the IC50 was 1700 nM.
With `CS(=O)(=O)Cc1cc(N2CCOCC2)nc(-c2ccc(NC(=O)NCc3ccco3)cc2)n1` [Example 7p, 3-(2-furylmethyl)-1-[4-[4-(methylsulfonylmethyl)-6-morpholin-4-yl-pyrimidin-2-yl]phenyl]urea] the figure was 3800 nM; with `CS(=O)(=O)Cc1cc(N2CCOCC2)nc(-c2ccc(NC(=O)NCCc3cccs3)cc2)n1` [Example 7q, 1-[4-[4-(methylsulfonylmethyl)-6-morpholin-4-yl-pyrimidin-2-yl]phenyl]-3-(2-thiophen-2-ylethyl)urea], 1700 nM.
The value for `CS(=O)(=O)Cc1cc(N2CCOCC2)nc(-c2ccc(NC(=O)Nc3cccs3)cc2)n1` [Example 7r, 1-[4-[4-(methylsulfonylmethyl)-6-morpholin-4-yl-pyrimidin-2-yl]phenyl]-3-thiophen-2-yl-urea] was 190 nM; that for `CS(=O)(=O)Cc1cc(N2CCOCC2)nc(-c2ccc(NC(=O)NC3CC3)cc2)n1` [Example 8, 3-Cyclopropyl-1-[4-[4-(methylsulfonylmethyl)-6-morpholin-4-yl-pyrimidin-2-yl]phenyl]urea] was 31 nM; that for `CC(C)(C)NC(=O)Nc1ccc(-c2nc(CS(C)(=O)=O)cc(N3CCOCC3)n2)cc1` [Example 8a, 1-[4-[4-(methylsulfonylmethyl)-6-morpholin-4-yl-pyrimidin-2-yl]phenyl]-3-tert-butyl-urea] was 470 nM.
`CC(=O)NCCNC(=O)Nc1ccc(-c2nc(CS(C)(=O)=O)cc(N3CCOCC3)n2)cc1` [Example 8b, N-[2-[[4-[4-(methylsulfonylmethyl)-6-morpholin-4-yl-pyrimidin-2-yl]phenyl]carbamoylamino]ethyl]acetamide]: the IC50 turned out to be 420 nM.
Consider `CN(C)CCN(C)C(=O)Nc1ccc(-c2nc(CS(C)(=O)=O)cc(N3CCOCC3)n2)cc1` [Example 8c, 1-(2-dimethylaminoethyl)-1-methyl-3-[4-[4-(methylsulfonylmethyl)-6-morpholin-4-yl-pyrimidin-2-yl]phenyl]urea], for which the IC50 stood at 2200 nM.
The value for `CS(=O)(=O)Cc1cc(N2CCOCC2)nc(-c2ccc(NC(=O)NCc3ncc[nH]3)cc2)n1` [Example 8d, 3-(1H-imidazol-2-ylmethyl)-1-[4-[4-(methylsulfonylmethyl)-6-morpholin-4-yl-pyrimidin-2-yl]phenyl]urea] was 570 nM; that for `CN(C(=O)Nc1ccc(-c2nc(CS(C)(=O)=O)cc(N3CCOCC3)n2)cc1)C1CC1` [Example 8e, 1-cyclopropyl-1-methyl-3-[4-[4-(methylsulfonylmethyl)-6-morpholin-4-yl-pyrimidin-2-yl]phenyl]urea] was 280 nM.
`CC(C)CNC(=O)Nc1ccc(-c2nc(CS(C)(=O)=O)cc(N3CCOC[C@@H]3C)n2)cc1` [Example 8f, 1-[4-[4-[(3S)-3-Methylmorpholin-4-yl]-6-(methylsulfonylmethyl)pyrimidin-2-yl]phenyl]-3-(2-methylpropyl)urea]: the half-maximal inhibitory concentration (IC50) stood at 300 nM.
As for `CC(C)NC(=O)Nc1cccc(-c2nc(CS(C)(=O)=O)cc(N3CCOC[C@@H]3C)n2)c1` [Example 8g, 1-[3-[4-[(3S)-3-Methylmorpholin-4-yl]-6-(methylsulfonylmethyl)pyrimidin-2-yl]phenyl]-3-propan-2-yl-urea], the IC50 was found to be 960 nM.
With `CCNC(=O)Nc1cccc(-c2nc(CS(C)(=O)=O)cc(N3CCOC[C@@H]3C)n2)c1` [Example 8h, 3-Ethyl-1-[3-[4-[(3S)-3-methylmorpholin-4-yl]-6-(methylsulfonylmethyl)pyrimidin-2-yl]phenyl]urea] the figure was 920 nM.
